From patent US20230255986A1, “PHARMACEUTICAL COMPOSITIONS FOR TREATING INFECTIONS BY A NEUROTROPIC VIRUS” (priority 2020, published 2023)
Structures can show the parent of a compound that is named as a salt.

Key:
[1] = at 20° C.; cited from earlier work
[2] = mouse, in vivo, 4 mg/kg, 5 days

| brain concentration, nasal versus oral administration [2] | SMILES | water solubility [1] |
| --- | --- | --- |
|  | CC(C)OC(=O)[C@H](C)N[P@](=O)(CO[C@H](C)Cn1cnc2c(N)ncnc21)Oc1ccccc1 [Tenofovir alafenamide] | about 4.86 mg/ml |
| more than 4 fold | CC(C)OC(=O)OCOP(=O)(CO[C@H](C)Cn1cnc2c(N)ncnc21)OCOC(=O)OC(C)C [Tenofovir disoproxil fumarate] |  |
